The source of these data is US11208386B2, “Inhibitors of protein arginine deiminases (PADs) and methods of preparation and use thereof” (University of Massachusetts, priority 2016, dated 2021).

What all share (assay type): biochemical
One assay has as its target T1, PAD3 (Homo sapiens, UniProt Q9ULW8).
T1 construct: made in house
T1 sequence (Q9ULW8 1-664): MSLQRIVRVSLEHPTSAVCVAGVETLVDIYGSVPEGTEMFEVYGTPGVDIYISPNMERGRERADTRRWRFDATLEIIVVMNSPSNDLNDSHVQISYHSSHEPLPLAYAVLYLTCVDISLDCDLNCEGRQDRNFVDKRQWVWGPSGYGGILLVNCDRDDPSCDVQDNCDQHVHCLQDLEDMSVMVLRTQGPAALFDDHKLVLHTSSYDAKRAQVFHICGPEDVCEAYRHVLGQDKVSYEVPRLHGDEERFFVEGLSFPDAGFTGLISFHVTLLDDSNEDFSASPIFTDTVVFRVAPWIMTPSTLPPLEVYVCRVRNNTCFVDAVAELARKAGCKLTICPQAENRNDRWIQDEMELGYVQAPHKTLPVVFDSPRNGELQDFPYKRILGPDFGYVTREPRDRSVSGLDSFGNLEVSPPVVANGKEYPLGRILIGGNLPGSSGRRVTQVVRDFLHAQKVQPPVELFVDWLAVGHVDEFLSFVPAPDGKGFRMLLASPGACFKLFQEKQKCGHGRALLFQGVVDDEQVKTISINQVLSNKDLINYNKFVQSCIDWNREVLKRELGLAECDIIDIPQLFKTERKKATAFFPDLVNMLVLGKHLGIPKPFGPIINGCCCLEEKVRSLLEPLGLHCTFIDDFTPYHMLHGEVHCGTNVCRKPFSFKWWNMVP
Briefly: Inactivation kinetics, PAD3. As to conditions: for kinact/KI: a: single kobs determined; for Fold PAD3 Selectivity: kinact/KI relative to least inhibited isozyme (1.0). The protocol: (§1) Inactivation kinetic parameters were determined by incubating PAD1, 2, or 4 (2.0 μM) or PAD3 (5.0 μM) in a pre-warmed (10 min; 37° C.) inactivation mixture (50 mM HEPES, 10 mM CaCl2, and 2 mM DTT, pH 7.6, with a final volume of 60 μL) containing various concentrations of inhibitor. Aliquots were removed at various time points and added to a pre-warmed (10 min, 37° C.) reaction mixture (50 mM HEPES, 50 mM NaCl, 10 mM CaC2, 2 mM DTT, and 10 mM BAEE or 10 mM BAA in the case of PAD3; pH 7.6). After 15 min, reactions were quenched in liquid nitrogen and citrulline production quantified using the COLDER assay. […] In Vitro Labeling of PADs with “Clickable” Probes BB-F-Yne (5u), BB-Cl-Yne (5v) and BIFYne (5w)

The target of a further assay is T2, PAD4 (Homo sapiens, UniProt Q9UM07).
T2 construct: made in house
Briefly: Inactivation kinetics, PAD4. Conditions: for kinact/KI: a: single kobs determined, b: from a linear fit; for Fold PAD4 Selectivity: kinact/KI relative to least inhibited isozyme (1.0). As for the experimental part:
as §1

A further assay has as its target T3, PAD2 (Homo sapiens, UniProt Q9Y2J8).
T3 construct: made in house
In words: Inactivation kinetics, PAD2. Conditions: for kinact/KI: a: single kobs determined, b: from a linear fit, other footnotes: from kinact and KI; for Fold PAD2 Selectivity: kinact/KI relative to least inhibited isozyme (1.0). The protocol:
as §1

The next assay addresses T4, PAD1 (Homo sapiens, UniProt Q9ULC6).
T4 construct: made in house
T4 sequence (Q9ULC6 1-663): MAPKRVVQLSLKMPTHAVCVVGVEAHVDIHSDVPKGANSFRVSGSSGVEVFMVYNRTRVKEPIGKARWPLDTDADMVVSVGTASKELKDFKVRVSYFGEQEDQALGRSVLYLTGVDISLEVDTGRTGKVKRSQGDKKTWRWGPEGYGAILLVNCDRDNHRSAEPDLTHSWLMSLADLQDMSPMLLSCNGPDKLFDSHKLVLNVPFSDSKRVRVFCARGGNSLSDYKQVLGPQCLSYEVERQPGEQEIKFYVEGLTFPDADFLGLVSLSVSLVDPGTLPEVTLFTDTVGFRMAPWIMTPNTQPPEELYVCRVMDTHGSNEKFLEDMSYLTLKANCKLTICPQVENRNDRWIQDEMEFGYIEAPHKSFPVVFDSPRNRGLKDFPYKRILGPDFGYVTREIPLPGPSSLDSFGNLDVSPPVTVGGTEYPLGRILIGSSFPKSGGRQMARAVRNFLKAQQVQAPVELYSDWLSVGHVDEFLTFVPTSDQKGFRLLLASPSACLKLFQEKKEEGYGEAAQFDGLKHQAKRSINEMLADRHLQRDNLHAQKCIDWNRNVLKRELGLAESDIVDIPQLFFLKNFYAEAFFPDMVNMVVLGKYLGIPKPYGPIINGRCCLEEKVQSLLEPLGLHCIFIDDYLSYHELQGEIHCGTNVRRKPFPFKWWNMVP
Briefly: Inactivation kinetics, PAD1. Conditions: for kinact/KI: a: single kobs determined, b: from a linear fit; for Fold PAD1 Selectivity: kinact/KI relative to least inhibited isozyme (1.0). The protocol: as §1

T3 sequence (Q9Y2J8 whole entry): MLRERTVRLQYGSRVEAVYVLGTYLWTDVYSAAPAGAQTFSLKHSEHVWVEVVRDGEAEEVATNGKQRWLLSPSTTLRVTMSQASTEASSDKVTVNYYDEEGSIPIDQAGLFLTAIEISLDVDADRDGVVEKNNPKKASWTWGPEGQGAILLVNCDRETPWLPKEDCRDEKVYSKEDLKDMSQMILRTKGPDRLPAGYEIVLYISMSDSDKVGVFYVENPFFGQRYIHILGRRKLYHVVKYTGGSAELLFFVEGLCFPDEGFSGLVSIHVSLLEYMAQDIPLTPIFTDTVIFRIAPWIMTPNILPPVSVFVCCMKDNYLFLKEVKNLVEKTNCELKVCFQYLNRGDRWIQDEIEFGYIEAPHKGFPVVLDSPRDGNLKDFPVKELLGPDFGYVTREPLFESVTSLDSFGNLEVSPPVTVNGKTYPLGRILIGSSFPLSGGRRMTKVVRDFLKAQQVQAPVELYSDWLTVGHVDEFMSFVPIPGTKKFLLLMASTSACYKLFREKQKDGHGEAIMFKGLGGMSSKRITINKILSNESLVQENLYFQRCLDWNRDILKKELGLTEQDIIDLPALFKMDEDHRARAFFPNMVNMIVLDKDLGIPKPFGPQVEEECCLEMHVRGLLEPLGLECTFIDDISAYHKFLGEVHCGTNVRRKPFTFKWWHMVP
T2 sequence (Q9UM07 whole entry): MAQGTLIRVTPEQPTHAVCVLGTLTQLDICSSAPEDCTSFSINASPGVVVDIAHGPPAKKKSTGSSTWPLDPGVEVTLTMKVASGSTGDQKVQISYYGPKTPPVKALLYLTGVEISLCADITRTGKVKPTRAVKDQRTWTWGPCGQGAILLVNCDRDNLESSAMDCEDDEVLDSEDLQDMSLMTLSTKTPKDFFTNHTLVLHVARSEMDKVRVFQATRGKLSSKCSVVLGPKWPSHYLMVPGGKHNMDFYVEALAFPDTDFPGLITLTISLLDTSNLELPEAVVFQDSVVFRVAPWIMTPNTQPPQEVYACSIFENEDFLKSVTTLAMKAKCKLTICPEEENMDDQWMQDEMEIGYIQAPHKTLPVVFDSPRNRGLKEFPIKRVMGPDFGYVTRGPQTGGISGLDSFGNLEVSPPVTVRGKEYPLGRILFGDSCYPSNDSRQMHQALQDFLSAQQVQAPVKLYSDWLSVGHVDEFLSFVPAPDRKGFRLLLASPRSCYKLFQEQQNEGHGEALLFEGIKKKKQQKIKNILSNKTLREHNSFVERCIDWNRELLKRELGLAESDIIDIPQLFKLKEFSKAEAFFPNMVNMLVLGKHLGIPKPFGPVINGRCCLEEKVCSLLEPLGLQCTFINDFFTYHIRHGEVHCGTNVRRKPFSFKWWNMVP

Consider `COc1cccc2c1nc([C@H](CCCNC(=N)CF)NC(=O)c1cccc3c1C(=O)N(C)C3)n2C` [8a′], for which, on PAD3, the kinact/KI is 33.5 M⁻¹ s⁻¹ and the “Fold PAD3 Selectivity” value was determined as 1.0 fold. At PAD4, the kinact/KI is 38.3 M⁻¹ s⁻¹ and the “Fold PAD4 Selectivity” value came to 1.1 fold. Also, on PAD2 (PAD2, table footnote), the Ki turned out to be 12.8 µM and the kinact was 0.0455 s⁻¹. Besides, at PAD2, the kinact/KI is 3540 M⁻¹ s⁻¹ and the “Fold PAD2 Selectivity” value turned out to be 106 fold. Moreover, on PAD1, the kinact/KI was 996 M⁻¹ s⁻¹ and the “Fold PAD1 Selectivity” value is recorded as 30 fold.

Consider `COc1cccc2c1nc([C@H](CCCNC(=N)CCl)NC(=O)c1cccc3c1C(=O)N(C)C3)n2C` [8b′], for which, on PAD3, the kinact/KI is 228 M⁻¹ s⁻¹ and the “Fold PAD3 Selectivity” value turned out to be 2.2 fold. For the same compound, at PAD4, the kinact/KI was 106 M⁻¹ s⁻¹ and the “Fold PAD4 Selectivity” value is on record as 1.0 fold. For the same compound, at PAD2, the kinact/KI is 1160 M⁻¹ s⁻¹ and the “Fold PAD2 Selectivity” value came to 11 fold. Also, at PAD1, the kinact/KI is 719 M⁻¹ s⁻¹ and the “Fold PAD1 Selectivity” value stood at 6.8 fold.

With `N=C(CF)NCCC[C@H](NC(=O)c1ccccc1)c1nc2ccccc2[nH]1` [Compound 5a, N1-benzoyl-N5-(2-fluoro-1-iminoethyl)-1-(1H-benzo[d]imidazol-2-yl)-L-ornithine], at PAD3, the kinact/KI was 15 M⁻¹ s⁻¹ and the “Fold PAD3 Selectivity” value worked out at 1.9 fold. In addition, on PAD4, the kinact/KI is 142 M⁻¹ s⁻¹ and the “Fold PAD4 Selectivity” value is recorded as 18 fold. In addition, at PAD2, the kinact/KI was 7.92 M⁻¹ s⁻¹ and the “Fold PAD2 Selectivity” value is given as 1.0 fold. Besides, on PAD1, the kinact/KI is 75 M⁻¹ s⁻¹ and the “Fold PAD1 Selectivity” value was determined as 9.5 fold.

As for `N=C(CCl)NCCC[C@H](NC(=O)c1ccccc1)c1nc2ccccc2[nH]1` [Compound 5b, N1-benzoyl-N5-(2-chloro-1-iminoethyl)-1-(1H-benzo[d]imidazol-2-yl)-L-ornithine], on PAD3, the kinact/KI was 163 M⁻¹ s⁻¹ and the “Fold PAD3 Selectivity” value was found to be 20 fold. Besides, on PAD4, the kinact/KI is 254 M⁻¹ s⁻¹ and the “Fold PAD4 Selectivity” value turned out to be 31 fold. On PAD2, the kinact/KI is 8.33 M⁻¹ s⁻¹ and the “Fold PAD2 Selectivity” value was found to be 1.0 fold. Moreover, on PAD1, the kinact/KI is 132 M⁻¹ s⁻¹ and the “Fold PAD1 Selectivity” value was 16 fold.

As for `N=C(CF)NCCC[C@H](NC(=O)c1ccc2ccccc2c1)c1nc2ccccc2[nH]1` [Compound 5c], at PAD3, the kinact/KI was 46.7 M⁻¹ s⁻¹ and the “Fold PAD3 Selectivity” value turned out to be 3.6 fold. Moreover, on PAD4, the kinact/KI was 108 M⁻¹ s⁻¹ and the “Fold PAD4 Selectivity” value is listed as 8.3 fold. For the same compound, on PAD2, the kinact/KI is 13.1 M⁻¹ s⁻¹ and the “Fold PAD2 Selectivity” value stood at 1.0 fold. For the same compound, at PAD1, the kinact/KI was 25 M⁻¹ s⁻¹ and the “Fold PAD1 Selectivity” value was found to be 1.9 fold.

For the compound `N=C(CCl)NCCC[C@H](NC(=O)c1ccc2ccccc2c1)c1nc2ccccc2[nH]1` [Compound 5d], at PAD3, the kinact/KI is 165 M⁻¹ s⁻¹ and the “Fold PAD3 Selectivity” value came out at 3.5 fold. At PAD4, the kinact/KI is 167 M⁻¹ s⁻¹ and the “Fold PAD4 Selectivity” value amounted to 3.6 fold. For the same compound, at PAD2, the kinact/KI was 71.2 M⁻¹ s⁻¹ and the “Fold PAD2 Selectivity” value came out at 1.5 fold. Further, on PAD1, the kinact/KI was 46.7 M⁻¹ s⁻¹ and the “Fold PAD1 Selectivity” value stood at 1.0 fold.

For `N=C(CF)NCCC[C@H](NC(=O)c1ccc(-c2ccccc2)cc1)c1nc2ccccc2[nH]1` [Compound 5e, N1-[1,4′-Phenyl]benzol-N5-(2-fluoro-1-iminoethyl)-1-(1H-benzo[d]imidazol-2-yl)-L-ornithine], at PAD3, the kinact/KI is 56.7 M⁻¹ s⁻¹ and the “Fold PAD3 Selectivity” value is given as 3.8 fold. On PAD4, the kinact/KI is 62.5 M⁻¹ s⁻¹ and the “Fold PAD4 Selectivity” value stood at 4.2 fold. In addition, at PAD2, the kinact/KI was 20 M⁻¹ s⁻¹ and the “Fold PAD2 Selectivity” value came out at 1.3 fold. Moreover, at PAD1, the kinact/KI is 15 M⁻¹ s⁻¹ and the “Fold PAD1 Selectivity” value is recorded as 1.0 fold.

For orientation: kinact/KI means the second-order rate constant of inactivation. A word on the kinact: it is the rate constant of inactivation at saturating inhibitor.
